Data reported in ChEMBL document CHEMBL1201862, “PubChem BioAssay data set” (2004).
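1) Cells in 96-well plates. 2) Compound, 48 h, 5 concentrations. 3) Linear interpolation between surrounding doses. 4) Unreached endpoint = highest concentration. At the GI50, growth is halved.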 The source made the active and inactive calls. Cut-off read from the data, not from the text of the source: active = GI50 up to about 1.1 µM and inactive = higher.

Assays:
Assay in all cases: NCI anticancer screen, dose series, 48 h
[1] = tested on: COLO 205
[2] = tested on: RXF 393
[3] = tested on: OVCAR-3
[4] = tested on: TK-10
[5] = tested on: SK-MEL-28
[6] = tested on: K562
[7] = tested on: HOP-62
[8] = tested on: NCI-H460
[9] = tested on: HCT-116
[10] = tested on: HCT-15
[11] = tested on: SK-MEL-5
[12] = tested on: Malme-3M
[13] = tested on: MDA-MB-435
[14] = tested on: PC-3
[15] = tested on: SN12C
[16] = tested on: BT-549
[17] = tested on: SNB-19
[18] = tested on: NCI-H23
[19] = tested on: EKVX

In the case of Nc1nc2cc(CNc3ccc(C(=O)O)cc3)ccc2nc1-c1ccccc1, the GI50 [1] is reported as > 100 µM (inactive), the GI50 [2] is reported as > 100 µM (inactive) and the GI50 [3] is reported as > 100 µM (inactive). For the same molecule, the GI50 [4] was > 100 µM (inactive), the GI50 [5] was > 100 µM (inactive) and the GI50 [6] was > 100 µM (inactive). The GI50 [7] was > 100 µM (inactive), the GI50 [8] was > 100 µM (inactive) and the GI50 [9] was 69.8 µM (inactive). The GI50 [10] was > 100 µM, the GI50 [11] was > 100 µM (inactive) and the GI50 [12] was > 100 µM (inactive). For the same molecule, the GI50 [13] was > 100 µM (inactive), the GI50 [14] was > 100 µM (inactive) and the GI50 [15] was > 100 µM (inactive). The GI50 [16] was > 100 µM (inactive), the GI50 [17] was > 100 µM (inactive) and the GI50 [18] was 88.7 µM (inactive).
COc1ccc2[nH]c(C(=O)N3CC(CCl)c4ccc(N)cc43)cc2c1 (stereo unspecified) was tested, and the GI50 [1] was 0.2 µM (active), the GI50 [19] was 0.368 µM (active) and the GI50 [2] was 0.09 µM (active). The GI50 [3] was 0.27 µM (active), the GI50 [4] was 0.37 µM (active) and the GI50 [5] was 0.368 µM (active). The GI50 [6] was 0.128 µM (active), the GI50 [7] was 0.327 µM (active) and the GI50 [8] was 0.0867 µM (active). The GI50 [9] was 0.164 µM (active), the GI50 [10] was 0.287 µM and the GI50 [11] was 0.0451 µM (active). For the same molecule, the GI50 [12] was 0.141 µM (active), the GI50 [13] was 0.264 µM (active) and the GI50 [14] was 0.233 µM (active). The GI50 [15] was 0.347 µM (active), the GI50 [16] was 0.412 µM (active) and the GI50 [17] was 0.586 µM (active). The GI50 [18] was 0.0726 µM (active).
With COC(=O)CC1(CNC(=O)OCc2ccccc2)OCCO1 the GI50 [1] was > 100 µM (inactive), the GI50 [19] was > 100 µM (inactive) and the GI50 [2] was > 100 µM (inactive). The GI50 [3] was > 100 µM (inactive), the GI50 [4] was > 100 µM (inactive) and the GI50 [5] was > 100 µM (inactive). The GI50 [6] was > 100 µM (inactive), the GI50 [8] was > 100 µM (inactive) and the GI50 [9] was > 100 µM (inactive). For the same molecule, the GI50 [10] was > 100 µM, the GI50 [11] was > 100 µM (inactive) and the GI50 [12] was > 100 µM (inactive). For the same molecule, the GI50 [13] was > 100 µM (inactive), the GI50 [14] was > 100 µM (inactive) and the GI50 [15] was > 100 µM (inactive). For the same molecule, the GI50 [16] was > 100 µM (inactive), the GI50 [17] was > 100 µM (inactive) and the GI50 [18] was > 100 µM (inactive).
In the case of COC(=O)C1=C(C(=O)OC)C(N(C)C)C(C(=O)OC)=C(C(=O)OC)S1, the GI50 [1] is reported as > 100 µM (inactive), the GI50 [2] is reported as > 100 µM (inactive) and the GI50 [3] is reported as > 100 µM (inactive). For the same molecule, the GI50 [4] was > 100 µM (inactive), the GI50 [5] was > 100 µM (inactive) and the GI50 [6] was > 100 µM (inactive). The GI50 [7] was > 100 µM (inactive), the GI50 [8] was 57.1 µM (inactive) and the GI50 [9] was > 100 µM (inactive). The GI50 [10] was > 100 µM, the GI50 [13] was > 100 µM (inactive) and the GI50 [14] was > 100 µM (inactive). For the same molecule, the GI50 [15] was > 100 µM (inactive), the GI50 [16] was > 100 µM (inactive) and the GI50 [17] was > 100 µM (inactive). The GI50 [18] was > 100 µM (inactive).
For CCOC(=O)/C=C/c1cccc(F)c1, the GI50 [1] was > 100 µM (inactive), the GI50 [19] was > 100 µM (inactive) and the GI50 [2] was > 100 µM (inactive). The GI50 [4] was > 100 µM (inactive), the GI50 [5] was > 100 µM (inactive) and the GI50 [6] was > 100 µM (inactive). The GI50 [7] was > 100 µM (inactive), the GI50 [8] was > 100 µM (inactive) and the GI50 [9] was > 100 µM (inactive). The GI50 [10] was > 100 µM, the GI50 [12] was > 100 µM (inactive) and the GI50 [13] was > 100 µM (inactive). The GI50 [14] was > 100 µM (inactive), the GI50 [15] was > 100 µM (inactive) and the GI50 [16] was > 100 µM (inactive). The GI50 [17] was > 100 µM (inactive) and the GI50 [18] was > 100 µM (inactive).
For Cc1cc(S(=O)(=O)n2ccnc2Oc2ccccc2)c(SSc2cc(Cl)c(C)cc2S(=O)(=O)n2ccnc2Oc2ccccc2)cc1Cl, the GI50 [1] was > 100 µM (inactive), the GI50 [19] was 5.31 µM (inactive) and the GI50 [2] was > 100 µM (inactive). For the same molecule, the GI50 [3] was > 100 µM (inactive), the GI50 [4] was > 100 µM (inactive) and the GI50 [5] was > 100 µM (inactive). The GI50 [6] was > 100 µM (inactive), the GI50 [8] was > 100 µM (inactive) and the GI50 [9] was > 100 µM (inactive). For the same molecule, the GI50 [10] was > 100 µM, the GI50 [11] was 24.9 µM (inactive) and the GI50 [12] was 57.5 µM (inactive). For the same molecule, the GI50 [13] was > 100 µM (inactive), the GI50 [14] was > 100 µM (inactive) and the GI50 [15] was 85.5 µM (inactive). For the same molecule, the GI50 [16] was > 100 µM (inactive) and the GI50 [17] was > 100 µM (inactive).
With CCN(CC)c1ccc(/C=C/C=C2C(=O)NC(=S)NC2=O)cc1 the GI50 [1] was > 100 µM (inactive), the GI50 [19] was > 62.4 µM (inactive) and the GI50 [2] was 8.07 µM (inactive). The GI50 [3] was 16.6 µM (inactive), the GI50 [4] was > 62.2 µM (inactive) and the GI50 [5] was 4.91 µM (inactive). For the same molecule, the GI50 [7] was 15.4 µM (inactive), the GI50 [8] was > 100 µM (inactive) and the GI50 [9] was 30.9 µM (inactive). The GI50 [10] was > 38.7 µM, the GI50 [11] was 37.5 µM (inactive) and the GI50 [12] was 16.6 µM (inactive). For the same molecule, the GI50 [13] was 8.67 µM (inactive), the GI50 [14] was > 69.3 µM (inactive) and the GI50 [15] was 29.9 µM (inactive). The GI50 [16] was 13.1 µM (inactive), the GI50 [17] was 43.7 µM (inactive) and the GI50 [18] was > 67.5 µM (inactive).
COc1nc2ncc([C@@H](OC(C)=O)[C@@H](COC(C)=O)OC(C)=O)nc2c(=O)[nH]1 was tested, and the GI50 [1] was > 100 µM (inactive), the GI50 [19] was > 100 µM (inactive) and the GI50 [2] was > 100 µM (inactive). For the same molecule, the GI50 [3] was > 100 µM (inactive), the GI50 [4] was > 100 µM (inactive) and the GI50 [5] was > 100 µM (inactive). For the same molecule, the GI50 [6] was > 100 µM (inactive), the GI50 [7] was > 100 µM (inactive) and the GI50 [8] was > 100 µM (inactive). The GI50 [9] was > 100 µM (inactive), the GI50 [10] was > 100 µM and the GI50 [11] was > 100 µM (inactive). The GI50 [12] was > 100 µM (inactive), the GI50 [13] was > 100 µM (inactive) and the GI50 [14] was > 100 µM (inactive). For the same molecule, the GI50 [15] was > 100 µM (inactive), the GI50 [16] was > 100 µM (inactive) and the GI50 [17] was > 100 µM (inactive).
